Here are results for 33 molecules from ChEMBL document CHEMBL2016440, “Overcoming fluconazole resistance in Candida albicans clinical isolates with tetracyclic indoles” (Bioorg Med Chem Lett, 2012).

Activity calls are given as the source filed them. The calls are words filed in the database; no cut-off is given here.

For data set [1], the system named is Candida albicans. Put plainly: Antifungal activity against fluconazole-resistant Candida albicans isolate 2 assessed as growth inhibition after 48 hrs by alamar blue fluorescence assay in presence of 8 ug/ml fluconazole. The settings on record: isolate 2, 48 h. Format: functional, organism-based. Background: The colour change of resazurin is a common sign of viable cells or microbes.

The subject of data set [2] is Candida albicans. Put plainly: Antifungal activity against fluconazole-resistant Candida albicans isolate 8 assessed as growth inhibition after 48 hrs by alamar blue fluorescence assay in presence of 8 ug/ml fluconazole. Format: functional, organism-based. To be noted: isolate 8, 48 h.
Data set [3] relates to Candida albicans. Description: Antifungal activity against fluconazole-sensitive Candida albicans SC5314 assessed as growth inhibition at 1 ug/ml after 24 hrs by alamar blue fluorescence assay. Format: functional, organism-based.
Data set [4] concerns Candida albicans. Description: Antifungal activity against fluconazole-sensitive Candida albicans SC5314 assessed as growth inhibition at 8 ug/ml after 24 hrs by alamar blue fluorescence assay. Format: functional, organism-based.
The subject of data set [5] is NIH3T3. Put plainly: Cytotoxicity against mouse 3T3 cells. The data set is classed as cell-based.
Data set [6] has as its system Candida albicans. Put plainly: Antifungal activity against Candida albicans assessed as growth inhibition after 48 hrs by alamar blue fluorescence assay. Format: functional, organism-based.
For data set [7], the system named is Candida albicans. Put plainly: Antifungal activity against fluconazole-sensitive Candida albicans SC5314 assessed as growth inhibition at 7.5 ug/ml after 24 hrs by alamar blue fluorescence assay. Format: functional, organism-based.
In data set [8] the test system is Candida albicans. Put plainly: Antifungal activity against fluconazole-sensitive Candida albicans SC5314 assessed as growth inhibition at 7.5 ug/ml after 24 hrs by alamar blue fluorescence assay in presence of fluconazole. The settings on record: SC5314, 24 h, read-out: GI. Format: functional.
Data set [9] has as its system NIH3T3. Put plainly: Cytotoxicity against mouse 3T3 cells at 0.2 to 26 uM. Format: cell-based. The settings on record: nih3t3, 26 µM.

Broadly, the IC50 is the point on the concentration scale where inhibition reaches its midpoint. `CC1CCN(CCn2c3ccccc3c3nc4n(c(=O)c32)CCS4)CC1`: the IC50 in the data set on Candida albicans [1] is greater than 10 µM; with Candida albicans [2], greater than 26 µM.
Regarding `C[C@@H]1[C@H](O)[C@@H](C)/C=C/C=C/C=C/C=C/C=C/C=C/C=C/[C@H](O[C@@H]2O[C@H](C)[C@@H](O)[C@H](N)[C@@H]2O)C[C@@H]2O[C@](O)(C[C@@H](O)C[C@@H](O)[C@H](O)CC[C@@H](O)C[C@@H](O)CC(=O)O[C@H]1C)C[C@H](O)[C@H]2C(=O)O`, the “growth inhibition (GI)” value in the data set on Candida albicans [3] was “Active”.
Turning to `O=C(Cn1c2ccccc2c2nc3n(c(=O)c21)CCS3)N1CCCCC1`, the results for the IC50 with Candida albicans [1] and in the data set on Candida albicans [2] were 1.9 µM and 2.9 µM, respectively.
For `O=C(Cn1c2ccc(F)cc2c2nc3n(c(=O)c21)CCS3)N1CC=CC1`, in that order: 0.5 µM and greater than 26 µM.
The corresponding values for `CC1CCN(C(=O)Cn2c3ccccc3c3nc4n(c(=O)c32)CCCS4)CC1` are 12.1 µM and 21.3 µM.
For `Oc1c2nc3ccccc3c-2nc2n1CCS2`, in that order: greater than 10 µM and 15.7 µM.
With `O=C(Cn1c2ccc(F)cc2c2nc3n(c(=O)c21)CCS3)N1CCCC1`, the IC50 with Candida albicans [1] worked out at 0.6 µM; in the data set with Candida albicans [2], 18.9 µM.
For `O=C(Cn1c2ccccc2c2nc3n(c(=O)c21)CCS3)N1CCOCC1`, in that order: 4.3 µM and 6.6 µM.
For `O=C(Cn1c2ccccc2c2nc3n(c(=O)c21)CCS3)N1CC=CC1`, in that order: 1.8 µM and 3.1 µM.
For `CC1CCN(C(=O)Cn2c3ccc(F)cc3c3nc4n(c(=O)c32)CCCS4)CC1`, in that order: 2.7 µM and 11.7 µM.
For the molecule `O=C(Cn1c2ccc(F)cc2c2nc3n(c(=O)c21)CCS3)N1CCC(F)(F)CC1`, the IC50 in the data set with Candida albicans [1] was 0.7 µM; in the data set with Candida albicans [2] it was greater than 26 µM.
For `O=C(Cn1c2ccccc2c2nc3n(c(=O)c21)CCS3)NCCc1ccc(Cl)cc1`, in that order: greater than 10 µM and 23.4 µM.
As for `COc1ccc2c(c1)c1nc3n(c(=O)c1n2CC(=O)N1CCC(C)CC1)CCS3`, the IC50 in the data set with Candida albicans [1] and in the data set on Candida albicans [2] was greater than 26 µM each time.
As to `CCN(CC)C(=O)Cn1c2ccc(F)cc2c2nc3n(c(=O)c21)CCS3`, the values for the IC50 in the data set on Candida albicans [1] and in the data set on Candida albicans [2] were 0.5 µM and greater than 26 µM, respectively.
Consider `CC1(O)CN(C(=O)Cn2c3ccccc3c3nc4n(c(=O)c32)CCS4)C1`, for which the IC50 was greater than 10 µM with Candida albicans [1] and greater than 26 µM with Candida albicans [2].
On to `OC(Cn1cncn1)(Cn1cncn1)c1ccc(F)cc1F`, for which the “growth inhibition (GI)” value in the data set on Candida albicans [4] was “inactive”.
As to `O=C(Cn1c2ccccc2c2nc3n(c(=O)c21)CCS3)N1CCCC1`, the IC50 in the data set with Candida albicans [1] is 1.1 µM; in the data set with Candida albicans [2] it was 1.9 µM; with NIH3T3 [5] it was greater than 26 µM; in the data set with Candida albicans [6], greater than 26 µM. Besides, the “growth inhibition (GI)” value in the data set with Candida albicans [7] was “inactive”. Moreover, in the data set with Candida albicans [8], the inhibition of growth at 7.5 µg/mL came to 96%.
With `COC(=O)Cn1c2ccc(F)cc2c2nc3n(c(=O)c21)CCS3`, the IC50 in the data set on Candida albicans [1] was 3.5 µM; with Candida albicans [2] it was 6 µM.
Turning to `COc1ccc2c(c1)c1nc3n(c(=O)c1n2CC(=O)N1CCC(Cc2ccccc2)CC1)CCS3`, the IC50 in the data set on Candida albicans [1] and with Candida albicans [2] was greater than 26 µM throughout.
Take `Oc1c2nc3ccc(F)cc3c-2nc2n1CCS2`: the IC50 was found to be 3.8 µM in the data set on Candida albicans [1] and 7.1 µM in the data set with Candida albicans [2].
The corresponding values for `O=C(Cn1c2ccc(F)cc2c2nc3n(c(=O)c21)CCS3)N1CCCCC1` are 0.5 µM and greater than 26 µM.
For the molecule `O=C(Cn1c2ccccc2c2nc3n(c(=O)c21)CCS3)N1CCC(F)(F)CC1`, the IC50 in the data set with Candida albicans [1] was greater than 10 µM; in the data set with Candida albicans [2], greater than 26 µM.
As to `CCN(CC)C(=O)Cn1c2ccccc2c2nc3n(c(=O)c21)CCS3`, the IC50 is 2.3 µM with Candida albicans [1] and greater than 26 µM in the data set with Candida albicans [2].
For `COc1ccc(NC(=O)Cn2c3ccccc3c3nc4n(c(=O)c32)CCS4)cc1`, in that order: greater than 10 µM and greater than 26 µM.
As to `O=C(O)Cn1c2ccc(F)cc2c2nc3n(c(=O)c21)CCS3`, the IC50 in the data set with Candida albicans [1] and in the data set on Candida albicans [2] was greater than 26 µM each time.
With `O=C(O)Cn1c2ccccc2c2nc3n(c(=O)c21)CCS3`, the IC50 in the data set with Candida albicans [1] is greater than 10 µM; in the data set with Candida albicans [2], greater than 26 µM.
Regarding `CC1CCN(C(=O)Cn2c3ccccc3c3nc4n(c(=O)c32)CCS4)CC1`, the values for the IC50 with Candida albicans [1], with Candida albicans [2] and in the data set on NIH3T3 [5] were 3.2 µM, 5.5 µM and greater than 26 µM, respectively. In addition, the Activity entry in the data set on NIH3T3 [9] is recorded as “Non-toxic”.
`COC(=O)Cn1c2ccccc2c2nc3n(c(=O)c21)CCS3`: the IC50 was 7.9 µM in the data set with Candida albicans [1] and 13.3 µM in the data set on Candida albicans [2].
For the molecule `O=C(Cn1c2ccc(F)cc2c2nc3n(c(=O)c21)CCS3)N1CCCCCC1`, the IC50 with Candida albicans [1] is 2.2 µM; with Candida albicans [2] it was greater than 26 µM.
Take `O=C(Cn1c2ccccc2c2ccncc21)N1CCCCC1`: the IC50 in the data set with Candida albicans [1] and in the data set with Candida albicans [2] was greater than 26 µM each time.
In the case of `O=C(Cn1c2ccc(F)cc2c2nc3n(c(=O)c21)CCS3)N1CCC(F)(F)C1`, the IC50 in the data set on Candida albicans [1] and with Candida albicans [2] was 1.1 µM in each case.
As to `O=C(Cn1c2ccccc2c2nc3n(c(=O)c21)CCS3)N1CCC(F)(F)C1`, the IC50 in the data set on Candida albicans [1] amounted to 5.9 µM; in the data set with Candida albicans [2] it was 10.2 µM.
For `CN1CCN(C(=O)Cn2c3ccccc3c3nc4n(c(=O)c32)CCS4)CC1`, the values for the IC50 in the data set on Candida albicans [1] and in the data set on Candida albicans [2] were 7.1 µM and 22.5 µM, respectively.
